What all share (type): biochemical
The target in assay [1] is T1, TYK2 (Homo sapiens, UniProt P29597).
T1 construct: made in house; host or cells: SF9 insect cells (baculovirus)
T1 sequence (P29597 873-1187): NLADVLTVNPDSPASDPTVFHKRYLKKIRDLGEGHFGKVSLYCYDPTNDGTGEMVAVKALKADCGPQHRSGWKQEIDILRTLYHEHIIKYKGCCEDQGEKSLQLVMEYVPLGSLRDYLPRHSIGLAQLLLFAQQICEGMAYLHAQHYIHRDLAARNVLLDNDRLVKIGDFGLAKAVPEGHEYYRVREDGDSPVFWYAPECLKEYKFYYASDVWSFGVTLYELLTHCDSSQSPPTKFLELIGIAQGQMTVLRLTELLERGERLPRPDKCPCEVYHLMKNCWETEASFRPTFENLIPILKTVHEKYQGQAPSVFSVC
Kind of assay: TYK2 inhibition (Table 4).

Assay [2] has as its target T2, JAK3 (Homo sapiens, UniProt P52333).
T2 construct: made in house; host or cells: SF9 insect cells (baculovirus)
Kind of assay: JAK3 inhibition (Table 4). Particulars: read-out: JAK3 Ki.

The target in assay [3] is T3, JAK2 (Homo sapiens, UniProt O60674).
T3 construct: made in house; host or cells: SF9 insect cells (baculovirus)
Kind of assay: JAK2 inhibition (Table 4). The settings on record: read-out: JAK2 Ki.

The target in assay [4] is T4, JAK1 (Homo sapiens, UniProt P23458).
T4 construct: made in house; host or cells: SF9 insect cells (baculovirus)
Kind of assay: JAK1 inhibition (Table 4). The settings on record: read-out: JAK1 Ki.

pKi: −log10 of the molar value.

T4 sequence (P23458 852-1154): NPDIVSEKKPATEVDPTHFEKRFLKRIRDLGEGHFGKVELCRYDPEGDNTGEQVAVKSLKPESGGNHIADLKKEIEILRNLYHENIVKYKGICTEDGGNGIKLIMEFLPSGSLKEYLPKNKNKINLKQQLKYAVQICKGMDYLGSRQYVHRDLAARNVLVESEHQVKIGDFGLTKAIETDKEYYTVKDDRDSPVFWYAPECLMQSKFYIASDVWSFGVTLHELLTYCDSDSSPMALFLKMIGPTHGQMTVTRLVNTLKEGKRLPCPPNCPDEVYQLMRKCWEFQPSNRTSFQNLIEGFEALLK
T3 sequence (O60674 812-1132): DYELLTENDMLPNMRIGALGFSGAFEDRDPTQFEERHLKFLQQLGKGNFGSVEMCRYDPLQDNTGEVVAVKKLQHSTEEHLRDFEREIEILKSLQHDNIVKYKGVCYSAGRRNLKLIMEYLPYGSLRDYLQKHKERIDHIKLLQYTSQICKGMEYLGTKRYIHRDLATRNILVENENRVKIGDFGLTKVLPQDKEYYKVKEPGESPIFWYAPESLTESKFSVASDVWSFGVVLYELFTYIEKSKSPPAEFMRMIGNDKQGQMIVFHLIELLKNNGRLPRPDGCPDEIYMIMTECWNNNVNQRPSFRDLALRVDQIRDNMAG
T2 sequence (P52333 783-1124): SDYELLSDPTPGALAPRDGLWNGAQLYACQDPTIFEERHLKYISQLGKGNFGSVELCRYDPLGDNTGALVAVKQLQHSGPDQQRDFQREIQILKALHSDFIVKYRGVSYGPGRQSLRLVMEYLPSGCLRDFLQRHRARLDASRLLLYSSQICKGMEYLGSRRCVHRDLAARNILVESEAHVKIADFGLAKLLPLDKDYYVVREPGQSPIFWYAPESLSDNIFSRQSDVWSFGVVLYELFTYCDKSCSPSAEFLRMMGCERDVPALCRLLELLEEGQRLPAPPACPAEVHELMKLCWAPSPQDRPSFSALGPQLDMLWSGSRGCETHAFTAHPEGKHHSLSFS

Take `N#CCCN1CCC(n2c(CC(=O)N3CCS(=O)(=O)CC3)nc3cnc4[nH]ccc4c32)CC1` [Example 267, 3-(4-{2-[2-(1,1-Dioxo-1lambda*6*-thiomorpholin-4-yl)-2-oxo-ethyl]-6H-1,3,5,6-tetraaza-as-indacen-1-yl}-piperidin-1-yl)-propionitrile]: the pKi in assay [1] was 7.20; in assay [2] it was 8.15; in assay [3] it was 7.25; in assay [4] it was 8.12.
On to `CC(=O)NCc1nc2cnc3[nH]ccc3c2n1C1CCN(CCF)CC1` [Example 921, N-{1-[1-(2-Fluoro-ethyl)-piperidin-4-yl]-1,6-dihydro-1,3,5,6-tetraaza-as-indacen-2-ylmethyl}-acetamide], for which the negative logarithm of the Ki (pKi) was 6.72 in assay [1], 7.15 in assay [2], 6.93 in assay [3] and 7.88 in assay [4].
On the same counts, the results for `Cc1nc2ncccn2c1CN1CCC(n2c([C@@H](C)O)nc3cnc4[nH]ccc4c32)CC1` [Example 901, (R)-1-{1-[1-(2-Methyl-imidazo[1,2-a]pyrimidin-3-ylmethyl)-piperidin-4-yl]-1,6-dihydro-1,3,5,6-tetraaza-as-indacen-2-yl}-ethanol] are 6.65, 7.14, 6.86 and 7.60.
On the same counts, the results for `COCCC(=O)NCCc1nc2cnc3[nH]ccc3c2n1C1CCN(CCC#N)CC1` [Example 371, N-(2-{1-[1-(2-Cyano-ethyl)-piperidin-4-yl]-1,6-dihydro-1,3,5,6-tetraaza-as-indacen-2-yl}-ethyl)-3-methoxy-propionamide] are 6.75, 7.31, 7.45 and 8.32.
On the same counts, the results for `OC1CCCC(n2nnc3cnc4[nH]ccc4c32)C1` (single isomer, unassigned) [Example 552, 3-(6H-1,2,3,5,6-Pentaaza-as-indacen-1-yl)-cyclohexanol] are 7.62, 7.93, 7.99 and 8.18.
With `N#CCCN1CCC(n2c(CO)nc3cnc4[nH]ccc4c32)CC1` [Example 239, 3-[4-(2-Hydroxymethyl-6H-1,3,5,6-tetraaza-as-indacen-1-yl)-piperidin-1-yl]-propionitrile], the pKi in assay [1] was 8.13; in assay [2], 7.98; in assay [3], 8.29; in assay [4], 8.82.
On the same counts, the results for `CCOC(=O)N1CCC[C@@H](n2c([C@@H](C)O)nc3cnc4[nH]ccc4c32)C1` [Example 800, (R)-3-[2-((R)-1-Hydroxy-ethyl)-6H-1,3,5,6-tetraaza-as-indacen-1-yl]-piperidine-1-carboxylic acid ethyl ester] are 5.96, 5.85, 5.84 and 6.79.
The like results for `COCC(=O)NC1CCC(n2cnc3cnc4[nH]ccc4c32)CC1` (stereo not shown) [Example 887, 2-Methoxy-N-[4-(6H-1,3,5,6-tetraaza-as-indacen-1-yl)-cyclohexyl]-acetamide] were, in that order, 7.10, 6.71, 7.62 and 7.96.
As to `Cc1nc2cnc3[nH]ccc3c2n1C(C)C1CCCO1` (single isomer, unassigned) [Example 426, 2-Methyl-1-[1-(tetrahydro-furan-2-yl)-ethyl]-1,6-dihydro-1,3,5,6-tetraaza-as-indacene], the pKi in assay [1] was 6.48; in assay [2] it was 7.58; in assay [3] it was 7.25; in assay [4], 7.22.
The like results for `Cc1noc(CN2CC[C@H](n3c([C@@H](C)O)nc4cnc5[nH]ccc5c43)C2)n1` [Example 935, (R)-1-{1-[(S)-1-(3-Methyl-[1,2,4]oxadiazol-5-ylmethyl)-pyrrolidin-3-yl]-1,6-dihydro-1,3,5,6-tetraaza-as-indacen-2-yl}-ethanol] were, in that order, 6.27, 6.40, 5.98 and 7.18.

In general, pKi refers to the negative decadic logarithm of the Ki, by convention in mol/L.

These data come from US8461328B2, “Tricyclic heterocyclic compounds, compositions and methods of use thereof” (Genentech, Inc., priority 2010, dated 2013).
